# Earlier results, collected in patent publication US7399639B2, “Sensors, and methods of making and using the same” (Massachusetts Institute of Technology, priority 2003, dated 2008).
# Columns and labels:
# [1] = reported elsewhere; cited from earlier work
# [2] = reported elsewhere; cited from earlier work; remark: listed apart in the source
# [3] = reported elsewhere; cited from earlier work; remark: listed apart in the source
# [4] = reported elsewhere, cited from earlier work
structure (smiles),measurement,setting,value
O=C(O)c1ccccc1-c1c2cc(Cl)c(=O)cc-2oc2c(CNc3ccccc3CN(Cc3ccccn3)Cc3ccccn3)c(O)ccc12 [Zinpyr-4],increase in integrated emission in response to the dual-metal buffering system,[1],~5 fold
same,pKa of the aniline nitrogen,[2],7.2
same,metal ion selectivity,[3],Zn(II) and Cd(II) selective
same,quantum efficiency,[4]; metal-free,0.05
same,increase in brightness upon Zn(II) binding,[4],6.7 fold
same,quantum efficiency of Zn(II) complex,[4],0.34
